Experiments:
Assay in all cases: relative viability (nuclei count vs DMSO), 5 days (fraction); higher = more cells survive
[1] = compound: CCOC1=CC=CC=C1N=NC2=C(NN(C2=O)C3=NC(=CS3)C4=CC=CC=C4)C [BAM7] + CC(=O)Nc1cccc(-n2c(=O)n(C3CC3)c(=O)c3c(Nc4ccc(I)cc4F)n(C)c(=O)c(C)c32)c1 [Trametinib] (partner 0.02 µM)
Procedure, shortened: (§1)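 Lung cancer cell lines were pin-tool dosed in 1536-well plates on the day after seeding, with either a lone drug or a fixed anchor-drug dose plus five library-drug doses (not always all listed) in √10 steps. Nuclei were counted on 4× images after 5 days. Relative viability is the ratio of treated-well to vehicle-well nuclei counts, with each value a median of duplicate plates.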

[2] = compound: CCOC1=CC=CC=C1N=NC2=C(NN(C2=O)C3=NC(=CS3)C4=CC=CC=C4)C [BAM7] + N=C(N)NC(=N)NCCc1ccccc1 [Phenformin] (partner 250 µM)
Procedure, shortened: as §1

[3] = compound: CCn1c(-c2nonc2N)nc2c(C#CC(C)(C)O)ncc(OC[C@H]3CCCNC3)c21 + CC(C)C[C@H](NC(=O)[C@H](Cc1ccccc1)NC(=O)c1cnccn1)B(O)O [Bortezomib] (partner 0.002 µM)
Procedure, shortened: as §1

[4] = compound: CCn1c(-c2nonc2N)nc2c(C#CC(C)(C)O)ncc(OC[C@H]3CCCNC3)c21 + O=C(CCCCCCC(=O)Nc1ccccc1)NO [Vorinostat] (partner 1 µM)
Procedure, shortened: as §1

| Cell Line | relative viability ([1]; first compound 0.5 µM) | relative viability ([1]; first compound 5 µM) | relative viability ([1]; first compound 15.81 µM) | relative viability ([1]; first compound 50 µM) | relative viability ([2]; first compound 0.5 µM) | relative viability ([2]; first compound 5 µM) | relative viability ([2]; first compound 15.81 µM) | relative viability ([2]; first compound 50 µM) | relative viability ([3]; first compound 0.01 µM) | relative viability ([3]; first compound 0.03162 µM) | relative viability ([3]; first compound 0.1 µM) | relative viability ([3]; first compound 0.3162 µM) | relative viability ([3]; first compound 1 µM) | relative viability ([4]; first compound 0.01 µM) | relative viability ([4]; first compound 0.03162 µM) | relative viability ([4]; first compound 0.1 µM) | relative viability ([4]; first compound 0.3162 µM) | relative viability ([4]; first compound 1 µM) |
| --- | --- | --- | --- | --- | --- | --- | --- | --- | --- | --- | --- | --- | --- | --- | --- | --- | --- | --- |
| NCI-H23 | 0.314 | 0.423 | 0.389 | 0.462 | 0.816 | 0.76 | 0.86 | 0.856 | 0.974 | 1.06 | 0.913 | 0.861 | 1.13 | 0.559 | 0.591 | 0.626 | 0.558 | 0.531 |
| NCI-H322M | 0.525 | 0.577 | 0.496 | 0.571 | 0.77 | 0.805 | 0.806 | 0.799 | 1.21 | 1.18 | 1.26 | 1.19 | 1.19 | 0.75 | 0.724 | 0.754 | 0.702 | 0.869 |
| NCI-H441 | 0.522 | 0.518 | 0.498 | 0.496 | 0.866 | 1.1 | 0.779 | 0.923 | 0.47 | 0.451 | 0.459 | 0.288 | 0.449 | 0.786 | 0.85 | 0.937 | 0.614 | 0.663 |
| NCI-H460 | 0.0937 | 0.124 | 0.145 | 0.13 | 0.521 | 0.573 | 0.513 | 0.534 | 1.01 | 1.26 | 1.13 | 1.04 | 1.12 | 0.722 | 0.857 | 0.757 | 0.64 | 0.767 |
| NCI-H520 | 0.595 | 0.782 | 0.804 | 0.789 | 0.668 | 0.573 | 0.704 | 0.707 | 0.79 | 0.887 | 0.529 | 0.249 | 0.399 | 0.706 | 0.711 | 0.585 | 0.543 | 0.5 |
| NCI-H596 | 0.869 | 0.838 | 0.754 | 0.736 | 0.751 | 0.804 | 0.705 | 0.811 | 1.02 | 0.956 | 0.969 | 1.38 | 0.999 | 0.569 | – | 0.553 | 0.58 | 0.633 |
| NCI-H647 | 0.457 | 0.599 | 0.494 | 0.445 | 0.54 | 0.443 | 0.539 | 0.591 | 0.972 | 1.25 | 0.937 | 1.02 | 0.812 | 0.616 | 0.491 | 0.603 | 0.358 | 0.587 |
| NCI-H650 | 1.02 | 0.98 | 1.04 | 1.28 | 0.443 | 0.506 | 0.499 | 0.495 | 0.679 | 0.604 | 0.759 | 0.758 | 0.635 | 0.435 | 0.384 | 0.393 | 0.423 | 0.396 |
| NCI-H661 | 0.561 | 0.638 | 0.606 | 0.619 | 0.241 | 0.258 | 0.264 | 0.298 | 0.883 | 0.75 | 0.739 | 0.972 | 0.855 | 0.787 | 0.788 | 0.788 | 0.742 | 0.735 |
| NCI-H727 | 0.413 | 0.414 | 0.393 | 0.386 | 0.42 | – | 0.576 | 0.603 | 0.782 | 0.747 | 0.999 | 0.613 | 0.791 | 1.28 | 1.12 | 1.19 | 1.09 | 1.26 |
| NCI-H838 | 0.504 | 0.524 | 0.498 | 0.494 | 0.544 | 0.572 | 0.597 | 0.648 | 1.25 | 0.971 | 0.945 | 0.545 | 0.655 | 0.728 | 0.786 | 0.722 | 0.685 | 0.711 |
| NCI-H1355 | 0.399 | 0.386 | 0.317 | 0.457 | 0.462 | 0.421 | 0.425 | 0.458 | 1.23 | 1.11 | 1.15 | 1.13 | 1.19 | 0.659 | 0.549 | 0.617 | 0.55 | 0.619 |
| NCI-H1437 | 0.415 | 0.396 | 0.394 | 0.414 | 0.263 | 0.23 | 0.3 | 0.275 | 0.616 | 0.538 | 0.593 | 0.357 | 0.483 | 0.812 | 0.794 | 0.955 | 0.791 | 0.952 |
| NCI-H1650 | 0.607 | 0.467 | 0.578 | 0.727 | 0.473 | 0.501 | 0.484 | 0.472 | 0.214 | 0.195 | 0.223 | 0.185 | 0.202 | 0.614 | 0.628 | 0.642 | 0.377 | 0.462 |
| NCI-H1651 | 0.859 | 0.842 | 0.835 | 0.862 | 0.306 | 0.303 | 0.343 | 0.354 | 0.905 | 0.901 | 0.864 | 0.903 | 0.989 | 0.553 | 0.606 | 0.613 | 0.52 | 0.632 |
| NCI-H1666 | 0.895 | 0.879 | 0.887 | 0.837 | 0.592 | 0.588 | 0.588 | 0.563 | 0.688 | 0.678 | 0.869 | 0.762 | 0.841 | 1.02 | 1.07 | 0.986 | 1 | 0.942 |
| NCI-H1734 | 0.766 | 0.798 | 0.667 | 0.626 | 0.41 | 0.491 | 0.392 | 0.401 | 0.872 | 0.965 | 0.875 | 0.344 | 0.648 | 0.773 | 0.857 | 0.744 | 0.7 | 0.74 |
| NCI-H1755 | 0.749 | 0.805 | 0.705 | 0.779 | 0.657 | 0.657 | 0.611 | 0.645 | 0.956 | 0.917 | 0.939 | 0.923 | 0.906 | 0.725 | 0.66 | 0.637 | 0.762 | 0.841 |
| NCI-H1915 | 0.333 | 0.317 | 0.272 | 0.323 | 0.377 | 0.374 | 0.405 | 0.382 | 0.982 | 1.01 | 0.904 | 0.975 | 0.921 | 0.57 | 0.526 | 0.474 | 0.513 | 0.5 |
| NCI-H1975 | 0.329 | 0.366 | 0.332 | 0.415 | 0.401 | 0.425 | 0.391 | 0.427 | 0.379 | 0.351 | 0.438 | 0.314 | 0.289 | 0.705 | 0.72 | 0.717 | 0.631 | 0.684 |
| NCI-H1993 | 0.456 | 0.524 | 0.479 | 0.506 | 0.575 | 0.617 | 0.533 | 0.543 | 1.23 | 1.23 | 1.11 | 1.03 | 0.975 | 1.01 | 0.805 | 0.825 | 0.776 | 0.543 |
| NCI-H2009 | 0.265 | 0.229 | 0.268 | 0.283 | 0.497 | 0.542 | 0.426 | 0.465 | 0.997 | 0.944 | 1.05 | 1.03 | 0.958 | 0.726 | 0.708 | 0.788 | 0.706 | 0.821 |
| NCI-H2023 | 0.525 | 0.437 | 0.398 | 0.49 | 0.446 | 0.393 | 0.37 | 0.411 | 0.924 | 0.977 | 0.904 | 0.861 | 0.912 | 0.615 | 0.642 | 0.58 | 0.394 | 0.488 |
| NCI-H2085 | 0.587 | 0.521 | 0.471 | 0.52 | 0.691 | 0.619 | 0.625 | 0.711 | 0.861 | 1.02 | 1.03 | 1.03 | 1.05 | 0.822 | 0.785 | 0.785 | 0.712 | 0.796 |
| NCI-H2087 | 0.18 | 0.181 | 0.204 | 0.173 | 0.464 | 0.473 | 0.43 | 0.49 | 0.682 | 0.873 | 0.655 | 0.766 | 0.774 | 0.971 | – | 0.706 | 0.517 | 0.96 |
| NCI-H2126 | 0.516 | 0.499 | 0.519 | 0.476 | 0.494 | 0.54 | 0.473 | 0.556 | 1.05 | 1.13 | 1.08 | 1.09 | 1.1 | 0.754 | 0.743 | 0.791 | 0.741 | 0.792 |
| NCI-H2228 | 0.601 | 0.523 | 0.41 | 0.547 | 0.302 | 0.355 | 0.418 | 0.317 | 1.06 | 1.28 | 0.912 | 0.584 | 0.737 | 0.539 | 0.828 | 0.409 | 0.7 | 0.497 |
| NCI-H2347 | 0.326 | 0.32 | 0.277 | 0.287 | 0.622 | 0.31 | – | 0.37 | 0.644 | 0.861 | – | 0.888 | 0.933 | 0.602 | 0.522 | 0.611 | 0.543 | 0.55 |
| NCI-H2405 | 0.596 | 0.706 | 0.477 | 0.715 | 0.395 | 0.411 | 0.416 | 0.435 | 0.982 | 0.897 | 0.91 | 0.929 | 0.967 | 0.811 | 0.838 | 0.913 | 0.854 | 1.06 |
